Here are results for one compound from PMC5510229, “BCAT1 controls metabolic reprogramming in activated human macrophages and is associated with inflammatory diseases” (Nature Communications, 2017).

The subject of the assay is mouse peritoneal macrophages. The experiment in a line: Mouse i.p. injection of LPS and ERG240, peritoneal macrophages analysed. The class given is in vivo, C57BL/6 mice. How it is done:
Figure 4 Bcat1 inhibition blocks itaconate production in vivo and polarizes peritoneal macrophages. Mouse peritoneal macrophages from vehicle (saline), LPS-injected (1.5 mg kg^−1) or LPS+ERG240 (500 mg kg^−1)–injected mice were isolated and pooled 24 h following i.p. injection (n=6 mice per group). Irg1 protein (a), mRNA (b) levels, as well as itaconate measurements by GC/MS (c) are shown. […] Peritoneal macrophages were collected 24 h following the LPS injection. n=3 mice/group. (d) Protein–protein interaction (PPI) network in 100 top (97 annotated) differentially expressed genes between LPS and LPS+ERG240 treated mouse peritoneal macrophages illustrated by STRING (high confidence score=0.7). The IFN-inducible GTPase cluster is shown within a dashed circle. (e) Distribution of the fold changes and the FDR-adjusted P values (−log10 (FDR)) for the comparison between LPS and LPS+ERG240 treated macrophages. The IFN- inducible GTPase genes, M1-like, M2-like and extracellular matrix transcripts are shown in blue. (f) Fragments per kilobase of transcript per Million mapped reads (FPKM) values for Nos2, Il6 are shown in vehicle, LPS and LPS+ERG240-treated peritoneal macrophages. (g) FPKM values for Ifit1, Ifit2, Ifit3, Gbp1, Gbp2, Gbp4, Gbp7, Mrc1, Klf4, Cd36, Fn1, Mmp9, Gsn and Spp1. FPKM=1 is shown as a dashed line to denote minimal expression levels. All transcripts analysed by RNA-seq (f,g) show significant FPKM upon ERG240 treatment when compared to LPS group (FDR<10^−73). Error bars are s.e.m. Significance was tested using one-way ANOVA. *P<0.05 by ANOVA.
The procedure was performed by Washington Biotechnology Inc. (Baltimore, MD). […] Same dose of ERG240 was administered a second time, 8 h following the first injection of LPS. Peritoneal macrophages were harvested 24 h after the LPS injection and results from three groups (vehicle, LPS only, LPS+ERG240; n=6 mice in each group) were analysed in terms of IRG1 and itaconate level measurements.
For itaconate, cells pellets containing 1.5 × 10^6 hMDMs were quenched with 400 μl of methanol, previously chilled at −20 °C. After addition of 400 μl of cold (4 °C) ultrapure water, cell pellets were vortexed briefly and then allowed to stand for 10 min on ice. Following addition of 400 μl of GC/MS grade dichloromethane, previously chilled at −20 °C, samples were vortexed again and centrifuged at 14,000g for 10 min at 4 °C. The aqueous layer of the samples was collected and lyophilized. Dried materials were dissolved in 40 μl of MOX solution, which is prepared by allowing 20 mg of methoxamine HCl (Sigma Aldrich) to dissolve in 500 μl pyridine for 30 min at room temperature. Metabolites dissolved in MOX were incubated at 45 °C for 60 min, derivatized by adding 60 μl of N-methyl-N-(trimethylsilyl) trifluoroacetamide (MSFTA, Mecherey-Nagel) and incubated at 45 °C for 30 min. After a brief centrifugation, derivatized metabolites were transferred into clean GC/MS vials and analysed for the presence of itaconic acid (itaconate) using a 7890A GC System (Agilent Technologies) equipped with an Agilent J&W DB-5ms column (30 m, 0.25 mm, 0.25 μm), connected to an 5975C Triple-Axis MS Detector (Agilent Technologies) and outfitted with an autosampler. The MS source was held at 230 °C and the quadrupole at 150 °C. The GC oven temperature was held at 50 °C for 5 min, increased to 240 °C at a rate of 10 °C min^−1, held at 240 °C for 5 min and increased to 300 °C at a rate of 10 °C min^−1. A volume of 1 μl was injected in the system in a 1:3 split mode. The amount of itaconate present in the sample was determined after peak integration. For citrate, the frozen cell pellets were re-suspended in ice-cold ethanol-phosphate buffer. Cells were lysed by three freeze-thaw cycles and sonication. Samples were centrifuged and the supernatant was used for further analysis. […]

Where [1] appears, read: LPS 1.5 mg kg^−1 + ERG240 500 mg kg^−1 i.p., 24 h.
Setting [2] is: LPS+ERG240 vs LPS, peritoneal macrophages, 24 h.

In the case of `CC(=O)C(C)CCC(=O)O` (stereo not drawn) [ERG240], the “itaconate in peritoneal macrophages, sequential treatment” value (ERG240 administered 3 h after the first LPS injection, collected 24 h) is “equally decreased”. Besides, the “Il6, Gbp4 expression levels, sequential treatment” value (ERG240 administered following 3 hours of LPS, qRT-PCR) is listed as “inhibitory effect”. For the same compound, under setting [1], the “Irg1 mRNA and protein levels in peritoneal macrophages” value is “reduction”; the “itaconate in peritoneal macrophages” value is listed as “significant decrease”. Besides, under setting [2], the “IFN-inducible GTPase signature genes and M1-like markers (Nos2, Il6), RNA-seq” value is “down-regulated”; the “M2-like and extracellular matrix transcripts, RNA-seq” value is on record as “up-regulated”.
